Data reported in ChEMBL document CHEMBL3132750, “4-Chlorocolchicine derivatives bearing a thiourea side chain at the C-7 position as potent anticancer agents” (Medchemcomm, 2014).

Key:
[1] = tested on: A549; assay: Cytotoxicity against human A549 cells assessed as inhibition of cell proliferation after 96 hrs; format: functional, cell-based; details: A549, 96 h
[2] = tested on: HCT-116; assay: Cytotoxicity against human HCT116 cells assessed as inhibition of cell proliferation after 96 hrs; format: functional, cell-based; details: HCT-116, 96 h
[3] = tested on: HT-29; assay: Cytotoxicity against human HT-29 cells assessed as inhibition of cell proliferation after 96 hrs; format: functional, cell-based; details: HT-29, 96 h
[4] = Metabolic stability in BALB/c mouse hepatic microsomes assessed per mg of microsomal protein at 1 umol/L preincubated for 5 mins by LC-MS/MS method; format: ADME, Liver, Microsome; details: 1 µM
[5] = biological target: Tubulin (Sus scrofa, UniProt P02554+P02550); assay: Inhibition of tubulin polymerization assessed as reduction in tubulin assembly after 5 mins using pig microtubule protein by spectrophotometry; format: protein assay

Row | Structure (SMILES) | IC50 [1] [nM] | IC50 [2] [nM] | IC50 [3] [nM] | Intrinsic clearance [4] [µL/min/mg] | IC50 [5] [nM]
1 | COc1c(Cl)c2c(c(OC)c1OC)-c1ccc(OC)c(=O)cc1[C@@H](NC(=S)Nc1ccccc1C#N)CC2 | 3800 | 2200 | 866 |  | 
2 | COc1c(Cl)c2c(c(OC)c1OC)-c1ccc(OC)c(=O)cc1[C@@H](NC(=S)Nc1ccn(C)n1)CC2 | 5.8 | 1.3 | 0.7 | 37 | 
3 | COc1c(Cl)c2c(c(OC)c1OC)-c1ccc(OC)c(=O)cc1[C@@H](NC(=O)NC(C)C)CC2 | 289 | 189 | 181 |  | 
4 | CCCNC(=S)N[C@H]1CCc2c(Cl)c(OC)c(OC)c(OC)c2-c2ccc(OC)c(=O)cc21 | 9.9 | 4.3 | 1.6 |  | 
5 | COc1c(Cl)c2c(c(OC)c1OC)-c1ccc(OC)c(=O)cc1[C@@H](NC(=S)Nc1cncnc1)CC2 | 941 | 177 | 154 |  | 
6 | COc1c(Cl)c2c(c(OC)c1OC)-c1ccc(OC)c(=O)cc1[C@@H](NC(=S)Nc1nc[nH]n1)CC2 | 0.5 | 0.3 | 0.2 | 88 | 
7 | COc1c(Cl)c2c(c(OC)c1OC)-c1ccc(OC)c(=O)cc1[C@@H](NC(=S)Nc1ccccc1)CC2 | 24.4 | 1.2 | 0.4 |  | 
8 | COc1c(Cl)c2c(c(OC)c1OC)-c1ccc(OC)c(=O)cc1[C@@H](NC(C)=O)CC2 | 9.9 | 8.1 | 7.9 | 28 | 
9 | COc1c(Cl)c2c(c(OC)c1OC)-c1ccc(OC)c(=O)cc1[C@@H](NC(=S)Nc1cnccn1)CC2 | 37.4 | 33 | 19.4 |  | 
10 | COc1c(Cl)c2c(c(OC)c1OC)-c1ccc(OC)c(=O)cc1[C@@H](NC(=O)Nc1ccccc1)CC2 | 48.1 | 36 | 35.2 |  | 
11 | COc1c(Cl)c2c(c(OC)c1OC)-c1ccc(OC)c(=O)cc1[C@@H](NC(=S)Nc1ccccn1)CC2 | 170 | 61.7 | 34.6 |  | 
12 | CCCCCCNC(=S)N[C@H]1CCc2c(Cl)c(OC)c(OC)c(OC)c2-c2ccc(OC)c(=O)cc21 | 212 | 171 | 176 |  | 
13 | COc1cc2c(c(OC)c1OC)-c1ccc(OC)c(=O)cc1[C@@H](NC(C)=O)CC2 [COLCHICINE] |  | 10.6 | 8.2 | 1 | 
14 | COc1c(Cl)c2c(c(OC)c1OC)-c1ccc(OC)c(=O)cc1[C@@H](NC(=S)NCCO)CC2 | 251 | 89.7 | 52.7 |  | 
15 | COc1c(OC)c2c(c(C(F)F)c1OC)CC[C@H](NC(C)=O)c1cc(=O)c(OC)ccc1-2 | 55.4 | 45.8 | 48.1 |  | 
16 | COc1c(Cl)c2c(c(OC)c1OC)-c1ccc(OC)c(=O)cc1[C@@H](NC(=S)Nc1cc(C)on1)CC2 | 42.5 | 7.3 | 5.6 |  | 
17 | CCNC(=O)N[C@H]1CCc2c(Cl)c(OC)c(OC)c(OC)c2-c2ccc(OC)c(=O)cc21 | 247 | 134 | 81.8 |  | 
18 | COc1c(OC)c2c(c(C(F)(F)F)c1OC)CC[C@H](NC(C)=O)c1cc(=O)c(OC)ccc1-2 | 55.2 | 37.9 | 35 |  | 
19 | CNC(=S)N[C@H]1CCc2c(Cl)c(OC)c(OC)c(OC)c2-c2ccc(OC)c(=O)cc21 | 10.9 | 6.3 | 2.8 |  | 
20 | COc1c(Cl)c2c(c(OC)c1OC)-c1ccc(OC)c(=O)cc1[C@@H](NC(=S)Nc1cccnc1)CC2 | 186 | 41.7 | 31.6 |  | 
21 | COc1c(Cl)c2c(c(OC)c1OC)-c1ccc(OC)c(=O)cc1[C@@H](NS(C)(=O)=O)CC2 | 45.4 | 36.9 | 38.6 |  | 
22 | COc1c(CF)c2c(c(OC)c1OC)-c1ccc(OC)c(=O)cc1[C@@H](NC(C)=O)CC2 | 8790 | 4750 | 2620 |  | 
23 | COc1c(Cl)c2c(c(OC)c1OC)-c1ccc(OC)c(=O)cc1[C@@H](NC(=S)Nc1ccc(C#N)cc1)CC2 | 67.8 | 25 | 6.4 |  | 
24 | CCN(CC)C(=O)N[C@H]1CCc2c(Cl)c(OC)c(OC)c(OC)c2-c2ccc(OC)c(=O)cc21 | 48.3 | 44.3 | 43.9 | 21 | 
25 | COc1c(Cl)c2c(c(OC)c1OC)-c1ccc(OC)c(=O)cc1[C@@H](NC(=S)Nc1cc[nH]n1)CC2 | 7.8 | 0.9 | 0.3 | 188 | 
26 | COc1c(Cl)c2c(c(OC)c1OC)-c1ccc(OC)c(=O)cc1[C@@H](NC(=O)N1CCCCC1)CC2 | 26.6 | 42.4 | 42.6 | 43 | 

Row | Structure (SMILES) | IC50 [1] [nM] | IC50 [2] [nM] | IC50 [3] [nM] | Intrinsic clearance [4] [µL/min/mg] | IC50 [5] [nM]
27 | COc1c(Cl)c2c(c(OC)c1OC)-c1ccc(OC)c(=O)cc1[C@@H](NC(=S)N1CCCC1)CC2 | 12.2 | 7.2 | 7.5 |  | 
28 | COc1c(Cl)c2c(c(OC)c1OC)-c1ccc(OC)c(=O)cc1[C@@H](NC(=S)Nc1cc(C)[nH]n1)CC2 | 2 | 0.3 | 0.3 | 4 | 1110
29 | COc1c(Cl)c2c(c(OC)c1OC)-c1ccc(OC)c(=O)cc1[C@@H](NC(=O)N(C)C)CC2 | 192 | 50.4 | 53.2 |  | 
30 | COc1c(Cl)c2c(c(OC)c1OC)-c1ccc(OC)c(=O)cc1[C@@H](NC(=S)Nc1ncn(C)n1)CC2 | 34.8 | 8.8 | 6 |  | 
31 | COc1c(Cl)c2c(c(OC)c1OC)-c1ccc(OC)c(=O)cc1[C@@H](NC(=S)Nc1ncnn1C)CC2 | 40.3 | 33.9 | 18 |  | 
32 | CCS(=O)(=O)N[C@H]1CCc2c(Cl)c(OC)c(OC)c(OC)c2-c2ccc(OC)c(=O)cc21 | 48.1 | 39.9 | 42.6 | 5 | 
33 | COc1ccc(NC(=S)N[C@H]2CCc3c(Cl)c(OC)c(OC)c(OC)c3-c3ccc(OC)c(=O)cc32)cc1 | 8 | 1.4 | 0.3 |  | 
34 | COc1c(Cl)c2c(c(OC)c1OC)-c1ccc(OC)c(=O)cc1[C@@H](NC(=S)N1CCC1)CC2 | 33.3 | 8.4 | 5.8 |  | 
35 | COc1c(Cl)c2c(c(OC)c1OC)-c1ccc(OC)c(=O)cc1[C@@H](NC(=S)Nc1n[nH]c(C)n1)CC2 | 1.7 | 0.5 | 0.3 | 223 | 
36 | COc1c(Cl)c2c(c(OC)c1OC)-c1ccc(OC)c(=O)cc1[C@@H](NC(=S)Nc1nccs1)CC2 | 10.1 | 6.5 | 1.1 |  | 
37 | CCCN(CCC)C(=S)N[C@H]1CCc2c(Cl)c(OC)c(OC)c(OC)c2-c2ccc(OC)c(=O)cc21 | 40.3 | 34.4 | 38.2 |  | 
38 | COc1cccc(NC(=S)N[C@H]2CCc3c(Cl)c(OC)c(OC)c(OC)c3-c3ccc(OC)c(=O)cc32)c1 | 23.3 | 1.4 | 0.5 |  | 
39 | COc1c(Cl)c2c(c(OC)c1OC)-c1ccc(OC)c(=O)cc1[C@@H](NC(=S)N(C)C)CC2 | 10.7 | 8.4 | 8.8 |  | 
40 | COc1c(Cl)c2c(c(OC)c1OC)-c1ccc(OC)c(=O)cc1[C@@H](NC(=S)Nc1ccncc1)CC2 | 247 | 34.1 | 23.5 |  | 
41 | COc1c(Cl)c2c(c(OC)c1OC)-c1ccc(OC)c(=O)cc1[C@@H](NC(=S)Nc1cccc(C#N)c1)CC2 | 126 | 25.3 | 6.7 |  | 
42 | COc1c(Cl)c2c(c(OC)c1OC)-c1ccc(OC)c(=O)cc1[C@@H](NC(=S)N(C)CCO)CC2 | 44.9 | 32.6 | 30.4 |  | 
43 | COc1ccccc1NC(=S)N[C@H]1CCc2c(Cl)c(OC)c(OC)c(OC)c2-c2ccc(OC)c(=O)cc21 | 77.6 | 29.4 | 15 |  | 
44 | COc1c(Cl)c2c(c(OC)c1OC)-c1ccc(OC)c(=O)cc1[C@@H](NC(=S)Nc1nc(C)cs1)CC2 | 7.6 | 2.4 | 0.4 |  | 
45 | CCCCNC(=S)N[C@H]1CCc2c(Cl)c(OC)c(OC)c(OC)c2-c2ccc(OC)c(=O)cc21 | 7.4 | 1.8 | 1 |  | 
46 | COc1c(Cl)c2c(c(OC)c1OC)-c1ccc(OC)c(=O)cc1[C@@H](NS(=O)(=O)CC(C)C)CC2 | 40.8 | 33.2 | 36.4 |  | 
47 | COc1c(Cl)c2c(c(OC)c1OC)-c1ccc(OC)c(=O)cc1[C@@H](NC(N)=S)CC2 | 45 | 9 | 6.1 |  | 
48 | COc1c(Cl)c2c(c(OC)c1OC)-c1ccc(OC)c(=O)cc1[C@@H](NC(=S)N1CCCCC1)CC2 | 9.6 | 6.9 | 6.1 |  | 
49 | COc1c(Cl)c2c(c(OC)c1OC)-c1ccc(OC)c(=O)cc1[C@@H](NS(=O)(=O)C(C)C)CC2 | 44.9 | 40.7 | 42.2 |  | 
50 | COc1c(Cl)c2c(c(OC)c1OC)-c1ccc(OC)c(=O)cc1[C@@H](NS(=O)(=O)c1ccccc1)CC2 | 36.8 | 25.8 | 8.7 |  | 
51 | COc1c(Cl)c2c(c(OC)c1OC)-c1ccc(OC)c(=O)cc1[C@@H](NC(=S)Nc1cccc(N(C)C)c1)CC2 | 38.4 | 24.2 | 4.4 |  | 
52 | COc1c(Cl)c2c(c(OC)c1OC)-c1ccc(OC)c(=O)cc1[C@@H](NC(=S)Nc1cccnn1)CC2 | 39.6 | 13.2 | 6.3 |  | 
